Patent publication US7994127B2, “Treatment of rett syndrome” (Massachusetts Institute of Technology, priority 2007, dated 2011)
Entries after “also recorded” stand apart in the source; their conditions may differ.

Columns and labels:
[1] = test system: neurons in the CA3 region of the hippocampus; test: Neuron soma size in hippocampus; type: in vivo, mouse
Procedure: We also measured the effect of (1-3)IGF1 treatment on neuron soma size in hippocampus. Mice were treated with (1-3)IGF1 as described above for locomotor activity.

[2] = test system: layer 5 pyramidal neurons of MeCP2−/y mice; test: Intracellular whole-cell recordings of spontaneous EPSCs in acute cortical slices; type: ex vivo, mouse
Procedure: (§1) (1-3)IGF-1 treatment: For the survival measurements, the nocturnal activity analysis and the immunoblot analysis, (1-3) IGF-1 (Bachem Biosciences # H22468) was administered daily via intra-peritoneal injections (0.01 mg/g body weight, vehicle=saline, 0.01% BSA). The treatment was started at P15 and maintained throughout the course of the experiments. For intracellular physiology experiments, the mice were injected daily (0.01 mg/g body weight, vehicle=saline, 0.01% BSA) for 2 weeks, from P15 to P28-P32 when they were used for acute slice preparation. For optical imaging experiments, mice were injected with (1-3) IGF-1 (0.02 mg/g body weight, vehicle=saline, 0.01% BSA) daily from the day of the lid suture to the day of imaging. Slice physiology preparation: Coronal sections (300 μm thick) at or near sensorimotor cortex were cut in <4° C. ACSF using a Vibratome. Slices were incubated at 37° C. for 20 minutes after slicing, and at room temperature for the remainder of the experiment. Slices were transferred to a Warner chamber and recordings were taken from visually identified pyramidal neurons located in layer 5. Artificial cerebral spinal fluid (ACSF) contained 126 mM NaCl, 25 mM NaHCO3, 1 mM NaHPO4, 3 mM KCl, 2 mM MgSO4, 2 mM CaCl2, and 14 mM dextrose, was adjusted to 315-320 mOsm and 7.4 pH, and was bubbled with 95% O2/5% CO2. The intracellular pipette solution contained 100 mM potassium gluconate, 20 mM KCl, 10 mM HEPES, 4 mM MgATP, 0.3 mM NaGTP, and 10 mM Na-phosphocreatine. […] Cells were visualized with an Achroplan 40× water-immersion lens with infrared-DIC optics (Zeiss) and detected with an infrared camera (Hamamatsu) projecting to a video monitor. […] Then in current clamp ˜10 pulses (500 ms, 40-140 pA at 10 pA increments), were applied to quantify evoked firing rates and cellular excitability. […] Analysis was performed using a custom software package written in Matlab, with all events detected according to automated thresholds and blindly verified for each event individually by the experimenter. […]

[3] = test system: MeCP2 KO mice; test: Nocturnal activity measurements (infrared beam interruptions); type: in vivo, mouse; settings: for nocturnal locomotor activity, beam interruptions over 10 hours (FIG. 4B): 6 to 17 weeks of age
Procedure: as §1

[4] = test system: layer 5 pyramidal neurons in motor cortex of MeCP2 knockout mice; test: Golgi staining, dendritic spine density and morphology; type: in vivo, mouse
[5] = P28, knockout treated vs knockout and wild-type

Compound: NCC(=O)N1CCC[C@H]1C(=O)N[C@@H](CCC(=O)O)C(=O)O [(1-3)IGF-1, glycyl-L-prolyl-L-glutamic acid]
- average soma size (cell perimeter, FIG. 7) ([1]; MeCP2 KO animals, treated as for locomotor activity): increased average soma size in KO animals
- size of cell bodies ([1]; as a result of the knockout or treatment (Discussion)): no change was observed
- soma size (cell perimeter, FIG. 7) ([1]; wild type animals treated): had no effect on soma size in wild type animals
- mean EPSC amplitude per neuron, across all cells (FIG. 1C) ([2]; KO-T compared to KO, treated two weeks, mice 28-32 days old): modestly but significantly increased
- spontaneous EPSC amplitude (FIG. 1B) ([2]; MeCP2−/y mice, 0.01 mg/g body weight IP daily for 2 weeks, P15 to P28-P32, vs vehicle-treated MeCP2−/y): significantly larger in amplitude
- distributions of intervals between EPSC events (EPSC frequency, FIG. 1D) ([2]; between WT, and KO and KO-T groups): subtly but significantly modified
- nocturnal locomotor activity, beam interruptions over 10 hours (FIG. 4B) ([3]; MeCP2 KO mice, 0.01 mg/g IP daily from P15, vs vehicle KO): elevated these levels; also recorded: more active than vehicle-treated KO animals (KO) but not as active as WT
- nocturnal locomotor activity, beam interruptions over 10 hours (FIG. 4B) ([3]; wild-type mice treated (WT-T) vs WT): failing to increase activity in wild-type animals; also recorded: not significantly more active than WT
- nocturnal locomotor activity, beam interruptions over 10 hours (FIG. 6) ([3]; young mice, 4 to 5 weeks of age): treatment did not change activity levels
- over-representation of thin (immature) spines (FIG. 2D) ([4]; P28, knockout treated vs knockout): not ameliorated by the treatment
- % mushroom (mature) spines (FIG. 2D) [4, 5]: reduced in the knockout compared to wild-type and knockout treated with (1-3)IGF1
- dendritic spine density (spines per length of dendrite, FIG. 2C) [4, 5]: spine densities more similar to wild-type values
- average dendritic branch thickness (FIG. 2E) ([4]; P28, wild-type, knockout, knockout treated): did not vary
